Assay results published in patent US20220315624A1, “THIOSTREPTON ANALOGS AND METHODS OF MAKING AND USING SAME” (YALE UNIVERSITY, priority 2019, published 2022).
≈ marks a conversion by molar mass, not a printed value.

Legend:
[1] = Aqueous solubility analysis in MOPS buffer; assay type: physicochemical; conditions: aqueous 10 mM MOPS buffer, thermodynamic from solid; after 24 hours in 10 mM aqueous MOPS buffer, pH 7.2
Description: A 2 dram vial was loaded with ˜0.5 mg of a thiostrepton derivative and suspended in ˜4 mL of aqueous 10 mM MOPS buffer (pKa 7.2). The suspension was stirred vigorously for 24 h to ensure equilibration, then filtered through a […] centrifuge filtration unit. A 3.0 mL aliquot was concentrated, and the dried residue was diluted with 0.30 mL of 1:1 1,4-dioxane/H2O (10× original concentration necessitated by detection limits). The total UV absorbance (200-300 nm) was measured in triplicate by UPLC runs with a photodiode array detector. A calibration curve for each compound was created using data points from 3 trials each of concentrations in 1:1 1,4-dioxane/H2O ranging from […]. These concentrations were plotted against their respective average absorbances. The experimental concentration of each compound was calculated by dividing the found μg/mL value by the residue concentration factor of 10 to yield the actual solubility value.

E. coli ATCC 25922 = experiment: MIC broth microdilution; assay type: cell-based; conditions: Escherichia coli, ATCC25922; E. coli ATCC 25922; CAMHB; read-out: MIC
Description: (§1) Twenty-four test agents were shipped to Micromyx and stored at −20° C. until assayed. The compounds were dissolved in 100% DMSO at 6.46 mg/mL prior to testing. Comparator drugs were supplied by Micromyx and were handled as described below:
(§2) The test organisms for the assay were recent clinical isolates or reference strains acquired from the American Type Culture Collection (ATCC; Manassas, Va.). Upon receipt, the isolates were streaked onto Trypticase Soy Agar II+5% sheep blood (TSAB). Colonies were harvested from the plates and a cell suspension was prepared in Trypticase Soy Broth containing cryoprotectant. Aliquots were then frozen at −80° C. Prior to the assay, the frozen seeds of all bacterial isolates to be tested were thawed and streaked for isolation onto TSAB (BD/BBL, Sparks, Md.; Lot No. 9011894), and were incubated overnight at 35° C.
(§3) The test medium for all isolates was cation-adjusted Mueller Hinton broth (CAMHB; BD/BBL; Lot No. 8190586). CAMHB (Cation Adjusted Mueller Hinton Broth) was supplemented with 3% (v/v) lysed horse blood (LHB; Hemostat, Dixon, Calif.; Lot No. 474990) for the testing of streptococci.
(§4) MIC values were determined using a broth microdilution method as recommended by CLSI. Automated liquid handlers (Multidrop 384, Labsystems, Helsinki, Finland; Biomek 2000 and Biomek F/X, Beckman Coulter, Fullerton Calif.) were used to conduct serial dilutions and make liquid transfers.
(§5) The wells of standard 96-well microdilution plates (Costar 3795, Corning Inc., Corning, N.Y.) were filled with 150 μL of the appropriate diluent in columns 2-12 on the Multidrop 384 (DMSO for the thiostrepton analogs, deionized H2O for vancomycin and ceftazidime). These plates were used to prepare the drug “mother plate” which provided the serial drug dilutions for the replicate “daughter plates”. The compounds (300 μL) were dispensed at 101× the highest concentration to be tested into the appropriate row of the “mother plate”. The Biomek 2000 was used to transfer 150 μL of each stock solution from the wells in Column 1 of the mother plate to make ten subsequent 2-fold serial dilutions. The wells of Column 12 contained no drug and served as the organism growth control wells. The daughter plates were loaded with 190 μL of test medium using the Multidrop 384.
(§6) The daughter plates were prepared on the Biomek F/X instrument which transferred […] of drug solution from each well of the mother plate to each corresponding well of each daughter plate in a single step. The wells of the daughter plates ultimately contained 190 μL of media, 2 μL of drug solution, and 10 μL of inoculum prepared as described below. The final concentration of DMSO (if used as a solvent) in the test well was 1%.
(§7) A standardized inoculum of each organism was prepared per CLSI methods. A suspension of organisms from a fresh plate was prepared in CAMHB to equal the turbidity of a 0.5 McFarland standard. The suspensions were diluted 1:20 in CAMHB, or in the case of streptococci CAMHB with LHB. The inoculum for each organism was dispensed into sterile reservoirs divided by length (Beckman Coulter), and the Biomek 2000 was used to inoculate the plates. Daughter plates were placed on the Biomek 2000 work surface reversed so that inoculation took place from low to high drug concentration. The Biomek 2000 delivered 10 μL of standardized inoculum into each well. These dilutions yielded a final cell concentration in the daughter plates of approximately 5.0×10^5 CFU/mL.
(§8) Plates were stacked 3 high, covered with a lid on the top plate, placed in plastic bags, and incubated at 35° C. for 16-20 hr for all organisms except streptococci which were incubated for 20-24 hr. Following incubation, the microplates were removed from the incubator and viewed from the bottom using a plate viewer. The MIC was read and recorded as the lowest concentration of drug that inhibited visible growth of the organism. […]

[2] = test system: E. faecalis ATCC 29212 VSE; experiment: MIC broth microdilution; assay type: cell-based; conditions: Enterococcus faecalis, ATCC29212; E. faecalis ATCC 29212 VSE; CAMHB; read-out: MIC
Description: as §1, §2, §3, §4, §5, §6, §7, §8

E. faecalis MMX 486 VRE = experiment: MIC broth microdilution; assay type: cell-based; conditions: Enterococcus faecalis; E. faecalis MMX 486 VRE; CAMHB; read-out: MIC
Description: as §1, §2, §3, §4, §5, §6, §7, §8

E. faecium MMX 485 VRE = experiment: MIC broth microdilution; assay type: cell-based; conditions: Enterococcus faecium; E. faecium MMX 485 VRE; CAMHB; read-out: MIC
Description: as §1, §2, §3, §4, §5, §6, §7, §8

E. faecium MMX 708 VSE = experiment: MIC broth microdilution; assay type: cell-based; conditions: Enterococcus faecium, MMX708VSE; E. faecium MMX 708 VSE; CAMHB; read-out: MIC
Description: as §1, §2, §3, §4, §5, §6, §7, §8

[3] = test system: S. aureus ATCC 29213 MSSA; experiment: MIC broth microdilution; assay type: cell-based; conditions: Staphylococcus aureus; S. aureus ATCC 29213 MSSA; CAMHB; read-out: MIC
Description: as §1, §2, §3, §4, §5, §6, §7, §8

S. aureus MMX 8088 MRSA = experiment: MIC broth microdilution; assay type: cell-based; conditions: Staphylococcus aureus; S. aureus MMX 8088 MRSA; CAMHB; read-out: MIC
Description: as §1, §2, §3, §4, §5, §6, §7, §8

[4] = test system: S. pneumoniae ATCC 49619 PISP; experiment: MIC broth microdilution; assay type: cell-based; conditions: Streptococcus pneumoniae, ATCC49619, 20 h; S. pneumoniae ATCC 49619 PISP; CAMHB with 3% lysed horse blood; read-out: MIC
Description: as §1, §2, §3, §4, §5, §6, §7, §8

S. pyogenes ATCC 19615 = experiment: MIC broth microdilution; assay type: cell-based; conditions: Streptococcus pyogenes, ATCC19615, 20 h; S. pyogenes ATCC 19615; CAMHB with 3% lysed horse blood; read-out: MIC
Description: as §1, §2, §3, §4, §5, §6, §7, §8

S. aureus isolates = experiment: MIC broth microdilution, S. aureus isolates; assay type: cell-based; conditions: Staphylococcus aureus; across MSSA and MRSA isolates; read-out: MIC values against S. aureus isolates
Description: as §1, §2, §3, §4, §5, §6, §7, §8

[5] = test system: E. faecalis and E. faecium; experiment: MIC broth microdilution, summary over enterococci; assay type: cell-based; conditions: across the evaluated enterococci, VSE and VRE; for MIC: read-out: MIC values against E. faecalis and E. faecium
Description: as §1, §2, §3, §4, §5, §6, §7, §8

[6] = Un-inoculated solubility control plate (drug precipitation); assay type: physicochemical; conditions: for Precipitation in CAMHB: at 64 μg/mL in CAMHB
Gram-positive cocci = experiment: MIC broth microdilution, overall summary; assay type: cell-based; conditions: summary of MIC testing
Description: as §1, §2, §3, §4, §5
The daughter plates were prepared on the Biomek F/X instrument which transferred […] of drug solution from each well of the mother plate to each corresponding well of each daughter plate in a single step. […]
as §8, with “Following incubation, the microplates were removed from the incubator and viewed from the bottom using a plate viewer.” left out

SMILES	solubility at 24 h [1] [µg/mL]	MIC (E. coli ATCC 25922) [µg/mL]	MIC [2] [µg/mL]	MIC (E. faecalis MMX 486 VRE) [µg/mL]	MIC (E. faecium MMX 485 VRE) [µg/mL]	MIC (E. faecium MMX 708 VSE) [µg/mL]	MIC [3] [µg/mL]	MIC (S. aureus MMX 8088 MRSA) [µg/mL]	MIC [4] [µg/mL]	MIC (S. pyogenes ATCC 19615) [µg/mL]	MIC (S. aureus isolates) [µg/mL]	MIC [5] [µg/mL]	Precipitation in CAMHB [6]	Activity among the evaluated analogs / against evaluated Gram-positive cocci (summary in words) (Gram-positive cocci)	Precipitation in CAMHB in LHB ([6]; at 64 μg/mL in CAMHB in LHB)	MIC values against E. faecalis and E. faecium [5] [µg/mL]
C=C(NC(=O)c1csc(C2=N[C@@H]3c4csc(n4)[C@H]4NC(=O)c5csc(n5)[C@H]([C@](C)(O)[C@@H](C)O)NC(=O)C5CSC(=N5)/C(=C/C)NC(=O)[C@H]([C@@H](C)O)NC(=O)c5csc(n5)[C@]3(CC2)NC(=O)[C@H](C)NC(=O)C(=C)NC(=O)[C@H](C)NC(=O)[C@H]([C@@H](C)CC)N[C@@H]2C=Cc3c([C@H](C)O)cc(nc3[C@H]2O)C(=O)O[C@@H]4C)n1)C(=O)NC(=CNC(=O)c1ccc(Cl)cc1)C(N)=O [RJS-09]	< 1	> 64	0.25 (≈ 0.137 µM)	0.25 (≈ 0.137 µM)	0.12 (≈ 0.066 µM)	0.25 (≈ 0.137 µM)	0.25 (≈ 0.137 µM)	0.5 (≈ 0.275 µM)	< 0.001	0.002 (≈ 0.0011 µM)	0.25 to 0.5 (≈ 0.137 to 0.275 µM)	0.12 to 0.25 (≈ 0.066 to 0.137 µM)	distinct precipitation	most activity		
C=C(NC(=O)c1csc(C2=N[C@@H]3c4csc(n4)[C@H]4NC(=O)c5csc(n5)[C@H]([C@](C)(O)[C@@H](C)O)NC(=O)C5CSC(=N5)/C(=C/C)NC(=O)[C@H]([C@@H](C)O)NC(=O)c5csc(n5)[C@]3(CC2)NC(=O)[C@H](C)NC(=O)C(=C)NC(=O)[C@H](C)NC(=O)[C@H]([C@@H](C)CC)N[C@@H]2C=Cc3c([C@H](C)O)cc(nc3[C@H]2O)C(=O)O[C@@H]4C)n1)C(=O)NC(=CNC(=O)c1cccc(/C=N/O)c1)C(N)=O [RJS-17]	< 1	> 64	1 (≈ 0.547 µM)	0.5 (≈ 0.274 µM)	0.5 (≈ 0.274 µM)	0.5 (≈ 0.274 µM)	0.5 (≈ 0.274 µM)	0.5 (≈ 0.274 µM)	0.002 (≈ 0.00109 µM)	0.004 (≈ 0.00219 µM)	0.25 to 0.5 (≈ 0.137 to 0.274 µM)				distinct precipitation	
C=C(NC(=O)c1csc(C2=N[C@@H]3c4csc(n4)[C@H]4NC(=O)c5csc(n5)[C@H]([C@](C)(O)[C@@H](C)O)NC(=O)C5CSC(=N5)/C(=C/C)NC(=O)[C@H]([C@@H](C)O)NC(=O)c5csc(n5)[C@]3(CC2)NC(=O)[C@H](C)NC(=O)C(=C)NC(=O)[C@H](C)NC(=O)[C@H]([C@@H](C)CC)N[C@@H]2C=Cc3c([C@H](C)O)cc(nc3[C@H]2O)C(=O)O[C@@H]4C)n1)C(=O)NC(=CNC(=O)c1cccc(/C=N/OC)c1)C(N)=O [RJS-11]	< 1	> 64	0.5 (≈ 0.272 µM)	0.25 (≈ 0.136 µM)	0.25 (≈ 0.136 µM)	0.25 (≈ 0.136 µM)	0.5 (≈ 0.272 µM)	0.5 (≈ 0.272 µM)	< 0.001	< 0.001	0.25 to 0.5 (≈ 0.136 to 0.272 µM)	0.25 (≈ 0.136 µM)	distinct precipitation	most activity		0.5 (≈ 0.272 µM)
